How the values were obtained:
Assay type in all cases: cell-based, human
[1] = system: 8226 cells; test: Viability of 8226 myeloma cells (MTT); conditions: 100 nM, cells lack FGFR3 expression
Excerpt: (§1) FIG. 2 is a graph showing the viability of human myeloma cell lines in the presence of PRO-001. Viability is reported as the ratio between the optical density (OD) in the presence of FGF±inhibitor and the OD in the absence of FGF.
(§2) Non-transformed rat chondrocyte cell line expressing PGFR3 in an inducible manner (RCJ-FGFR3) has been described previously (Rauchenberger R. et al. J. Biol. Chem. 2003; 278:38194-205). Cells were maintained in α-Minimum Essential Media supplemented with 15% fetal calf serum (FCS), 2 mM L-Glutamine, 100 U/ml penicillin, 100 μg/ml streptomycin, 600 μg/ml G418 (Gibco BRL, Ontario, Canada), 2 μg/ml Tetracyclin (Sigma, Ontario, Canada), and 50 μg/ml HygromycinB (Gibco BRL). […]
(§3) Cell viability was assessed by 3-(4,5-dimethylthiazol)-2,5-diphenyl tetrazolium (MTT) or (2,3-bis(2-methoxy-4-nitro-5-sulphophenyl)-5-[(phenylamino) carbonyl]-2H-tetrazolium hydroxide (XTT) dye absorbance where indicated. Cells were seeded in 96-well plates at a density of 20,000 (FDCP-1 cells), 5,000 (B9 cells) or 25,000 cells (MM cell lines) per well in culture medium. Cells were incubated in the absence or presence of one of the following cytokines: 10 ng/ml FGF9 and 5 μg/ml heparin, 1% murine IL-6, 50 ng/ml IGF-1 or 50 ng/ml human IL-6 where indicated and increasing concentrations of PRO-001, control antibody (purified human Fab) or 100 nM PD173074. […]

[2] = system: UTMC2 cells; test: Viability of stimulated UTMC2 myeloma cells (MTT); conditions: 100 nM; MTT
Protocol: as §1
FIG. 4 is a graph showing viability of UTMC2 cells treated with FGF, IL6 or IGF-1. The dark bars represent stimulated cells treated with a control antibody; the dotted bar represents stimulated cells treated with 5 μg/ml PRO-001; the square-filled bar represents stimulated cells treated with 100 nM PD173074.
Non-transformed rat chondrocyte cell line expressing PGFR3 in an inducible manner (RCJ-FGFR3) has been described previously (Rauchenberger R. et al. J. Biol. Chem. 2003; 278:38194-205). […]
as §3

[3] = system: H929 cells; test: Viability of H929 myeloma cells (MTT); conditions: 100 nM
Excerpt: as §1, §2, §3

Compound: CCN(CC)CCCCNc1ncc2cc(-c3cc(OC)cc(OC)c3)c(NC(=O)NC(C)(C)C)nc2n1 [PD173074, reference compound]
- Cell growth of 8226 cells in the presence of FGF [1]: resistant
- Inhibition of FGF-stimulated growth of UTMC2 [2]: Inhibition of FGF-stimulated growth of UTMC2 by PRO-001 was comparable to that induced by PD173074
- Cell growth of H929 cells in the presence of FGF [3]: resistant
